Legend:
H4-III-E cells = assay: TAT (tyrosine aminotransferase) assay; format: cell-based; details: for activation at 10 µM / Agonistic activity of 10 μM test compound: 10 μM test compound alone, relative to maximum Dex-induced TAT activity (100%); for activation at 10 µM: read-out: Agonistic activity of 10 μM test compound; for Antagonistic activity of 10 μM test compound: 10 μM test compound together with 0.005 μM dexamethasone, inhibitory ratio against TAT activity increase by Dex
Procedure, shortened: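 Rat hepatoma H4-III-E cells were treated overnight with compound, either alone for agonism or together with 0.005 μM dexamethasone for antagonism. TAT activity in lysates was read at 331 nm after reaction at 37 °C. Activity was expressed as % of the dexamethasone response, or as % inhibition of the dexamethasone-induced increase, and scored at a 10% cutoff.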

human GRα protein = molecular target: T1, human GRα protein (Homo sapiens, UniProt P04150); assay: Binding inhibitory assay (displacement of 3H-dexamethasone from the cytoplasm fraction of baculovirus-infected insect cells); details: 100 nM test compound; 3H-Dex; NSB with 10 μM dexamethasone; read-out: Binding Inhibitory ratio (%) of 100 nM of test compound
T1 construct: made in house; host or cells: insect cells infected with baculovirus; cytoplasm fraction used
T1 sequence (P04150 1-777): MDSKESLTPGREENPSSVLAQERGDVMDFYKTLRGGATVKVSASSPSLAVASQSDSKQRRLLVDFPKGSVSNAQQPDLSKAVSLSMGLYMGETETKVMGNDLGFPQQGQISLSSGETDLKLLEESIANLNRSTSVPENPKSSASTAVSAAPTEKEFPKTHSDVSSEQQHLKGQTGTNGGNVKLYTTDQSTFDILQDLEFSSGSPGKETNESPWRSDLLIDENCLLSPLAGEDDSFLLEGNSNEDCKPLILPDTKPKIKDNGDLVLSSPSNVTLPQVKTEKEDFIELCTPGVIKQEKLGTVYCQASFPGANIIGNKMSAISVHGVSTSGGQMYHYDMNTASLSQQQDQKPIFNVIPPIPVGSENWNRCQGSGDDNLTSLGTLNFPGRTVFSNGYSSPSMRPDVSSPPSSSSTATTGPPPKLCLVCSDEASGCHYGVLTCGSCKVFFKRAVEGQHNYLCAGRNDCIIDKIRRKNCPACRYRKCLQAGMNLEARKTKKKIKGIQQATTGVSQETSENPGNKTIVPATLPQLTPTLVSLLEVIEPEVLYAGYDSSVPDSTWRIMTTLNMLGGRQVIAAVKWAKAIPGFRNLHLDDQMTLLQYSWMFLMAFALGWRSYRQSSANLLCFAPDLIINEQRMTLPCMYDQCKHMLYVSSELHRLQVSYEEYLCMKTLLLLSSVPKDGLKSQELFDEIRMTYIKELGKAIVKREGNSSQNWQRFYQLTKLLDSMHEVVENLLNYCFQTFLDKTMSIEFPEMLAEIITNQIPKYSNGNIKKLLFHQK
Procedure, shortened: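 Cytosol from baculovirus-infected insect cells expressing human GRα incubated with compound and 10 nM ³H-dexamethasone solution in Tris/EDTA/glycerol/DTT/molybdate buffer, pH 7.6, 1% DMSO, 16–20 h at 4 °C. Free ligand removed with dextran-coated charcoal, supernatant counted; NSB from 10 μM dexamethasone, inhibition % vs DMSO, duplicates.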

Row | Compound | inhibition at 0.1 µM (human GRα protein) | activation at 10 µM (H4-III-E cells) | Antagonistic activity of 10 μM test compound (H4-III-E cells) | Agonistic activity of 10 μM test compound (H4-III-E cells)
1 | COc1cc(CC(=O)O)ccc1OC1CCN(CC(O)(c2cn(Cc3ccncc3)c3cc(C#N)ccc23)C(F)(F)F)CC1 (centres unmarked) [Example 235, {4-[(1-{2-[6-Cyano-1-(pyridin-4-ylmethyl)-1H-indol-3-yl]-3,3,3-trifluoro-2-hydroxypropyl}piperidin-4-yl)oxy]-3-methoxyphenyl}acetic acid] | 79% | < 10% | ◯ | –
2 | CCOC(=O)CCc1ccc(OC2CCN(CC(O)(c3cn(Cc4ccccc4)c4cc([N+](=O)[O-])ccc34)C(F)(F)F)CC2)cc1 (centres unmarked) [Example 181, Ethyl 3-[4-({1-[2-(1-benzyl-6-nitro-1H-indol-3-yl)-3,3,3-trifluoro-2-hydroxypropyl]piperidin-4-yl}oxy)phenyl]propanoate] | 87% | – | ◯ | ◯
3 | O=C(O)Cc1ccc(OC2CCN(CC(O)(c3cn(Cc4ccccc4)c4cc([N+](=O)[O-])ccc34)C(F)(F)F)CC2)cc1 (centres unmarked) [Example 180, [4-({1-[2-(1-Benzyl-6-nitro-1H-indol-3-yl)-3,3,3-trifluoro-2-hydroxypropyl]-piperidin-4-yl}oxy)phenyl]acetic acid] | 98% | – | ◯ | ◯
4 | COCCNCC(O)(c1cn(Cc2ccccc2)c2cc([N+](=O)[O-])ccc12)C(F)(F)F (centres unmarked) [Example 131, 2-(1-Benzyl-6-nitro-1H-indol-3-yl)-1,1,1-trifluoro-3-[(2-methoxyethyl)amino]-propan-2-ol] | 84% | < 10% | – | –
5 | CCOC(=O)Cc1ccc(OC2CCN(CC(O)(c3cn(Cc4ccccc4)c4cc([N+](=O)[O-])ccc34)C(F)(F)F)CC2)cc1 (centres unmarked) [Example 179] | 81% | – | ◯ | ◯

Second part, led by results:

Row | inhibition at 0.1 µM (human GRα protein) | Compound | activation at 10 µM (H4-III-E cells) | Antagonistic activity of 10 μM test compound (H4-III-E cells) | Agonistic activity of 10 μM test compound (H4-III-E cells)
6 | 88% | CCOC(=O)CCCCNCC(O)(c1cn(Cc2ccccc2)c2cc([N+](=O)[O-])ccc12)C(F)(F)F (centres unmarked) [Example 173, Ethyl 5-{[2-(1-benzyl-6-nitro-1H-indol-3-yl)-3,3,3-trifluoro-2-hydroxypropyl]-amino}pentanoate] | < 10% | ◯ | –
7 | 92% | O=[N+]([O-])c1ccc2c(C(O)(CN3CCCCC3)C(F)(F)F)cn(Cc3ccccc3)c2c1 (centres unmarked) [Example 1, 2-(1-Benzyl-6-nitro-1H-indol-3-yl)-1,1,1-trifluoro-3-piperidin-1-ylpropan-2-ol] | < 10% | ◯ | –
8 | 79% | Cc1ccccc1C(=O)CC(O)(c1cn(Cc2ccccc2)c2cc([N+](=O)[O-])ccc12)C(F)(F)F (centres unmarked) [Example 68, 3-(1-Benzyl-6-nitro-1H-indol-3-yl)-4,4,4-trifluoro-3-hydroxy-1-(2-methylphenyl)-butan-1-one] | < 10% | ◯ | –
9 | 99% | CCOC(=O)CCCNCC(O)(c1cn(Cc2ccccc2)c2cc([N+](=O)[O-])ccc12)C(F)(F)F (centres unmarked) [Example 169, Ethyl 4-{[2-(1-benzyl-6-nitro-1H-indol-3-yl)-3,3,3-trifluoro-2-hydroxypropyl]-amino}butanoate] | – | ◯ | ◯

From patent US20100190768A1, “NOVEL FUSED PYROLE DERIVATIVE” (Dainippon Sumitomo Pharma Co., Ltd., priority 2005, published 2010)
